The values that follow come from patent US20100022491A1, “4-HYDROXY-2-OXO-2,3-DIHYDRO-1,3-BENZOTHIAZOL-7YL COMPOUNDS FOR MODULATION OF B2-ADRENORECEPTOR ACTIVITY” (ASTRAZENECA AB, priority 2006, published 2010).

Assay [1] concerns the target T1, recombinant human α1D receptor (Homo sapiens, UniProt P25100).
T1 construct: expressed in transfected cells; host or cells: HEK293
T1 sequence (P25100 1-572): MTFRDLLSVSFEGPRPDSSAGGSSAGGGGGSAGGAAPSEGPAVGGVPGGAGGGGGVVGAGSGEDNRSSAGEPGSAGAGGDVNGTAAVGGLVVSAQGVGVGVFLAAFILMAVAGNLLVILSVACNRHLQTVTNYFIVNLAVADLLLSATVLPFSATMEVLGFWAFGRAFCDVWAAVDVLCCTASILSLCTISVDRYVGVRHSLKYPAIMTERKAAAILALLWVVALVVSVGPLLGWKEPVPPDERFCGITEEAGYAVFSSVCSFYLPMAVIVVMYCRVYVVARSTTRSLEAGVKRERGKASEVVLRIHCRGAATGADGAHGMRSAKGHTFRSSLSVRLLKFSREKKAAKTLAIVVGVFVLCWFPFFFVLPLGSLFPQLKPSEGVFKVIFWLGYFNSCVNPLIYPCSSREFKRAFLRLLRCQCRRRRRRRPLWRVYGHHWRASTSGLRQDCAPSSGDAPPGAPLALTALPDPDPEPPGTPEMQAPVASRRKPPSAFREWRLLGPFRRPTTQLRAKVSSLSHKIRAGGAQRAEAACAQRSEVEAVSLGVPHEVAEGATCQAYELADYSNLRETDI
Kind of assay: Adrenergic α1D selectivity binding assay ([3H]-prazosin). As to conditions: inhibition of [3H]-prazosin (0.3 nM) binding, HEK293 membranes; read-out: α1 bind pIC50 (converted). In short, it runs like this:
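HEK293 membranes with recombinant human α1D receptor incubated 2 h at room temperature with 0.3 nM [3H]-prazosin and compound in 50 mM HEPES, 1 mM EDTA, 0.1% gelatin, pH 7.4; BMY7378 (10 μM) defined non-specific binding. Filter-bound radioactivity counted; pIC50 from four-parameter logistic fit.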

Assay [2] addresses T2, recombinant human adrenergic beta 1 receptors (Homo sapiens, UniProt P08588).
T2 construct: purchased Euroscreen
Kind of assay: Adrenergic β1 selectivity binding assay ([125I]-Iodocyanopindolol). As to conditions: inhibition of [125I]-Iodocyanopindolol (0.036 nM) binding; read-out: β1 bind p IC50 (converted). A digest of the protocol:
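Recombinant human β1 membranes in HEPES buffer pH 7.4 with 120 mM NaCl were incubated 2 hours at room temperature with 0.036 nM [^125I]-Iodocyanopindolol. Nonspecific binding defined by 10 μM propranolol; bound radioactivity counted after filtration. pIC50 from four-parameter logistic fit.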

In assay [3] the target is T3, recombinant human Dopamine Subtype D2s receptors (Homo sapiens, UniProt P14416).
T3 construct: purchased Perkin Elmer
T3 sequence (P14416 1-414 isoform P14416-2): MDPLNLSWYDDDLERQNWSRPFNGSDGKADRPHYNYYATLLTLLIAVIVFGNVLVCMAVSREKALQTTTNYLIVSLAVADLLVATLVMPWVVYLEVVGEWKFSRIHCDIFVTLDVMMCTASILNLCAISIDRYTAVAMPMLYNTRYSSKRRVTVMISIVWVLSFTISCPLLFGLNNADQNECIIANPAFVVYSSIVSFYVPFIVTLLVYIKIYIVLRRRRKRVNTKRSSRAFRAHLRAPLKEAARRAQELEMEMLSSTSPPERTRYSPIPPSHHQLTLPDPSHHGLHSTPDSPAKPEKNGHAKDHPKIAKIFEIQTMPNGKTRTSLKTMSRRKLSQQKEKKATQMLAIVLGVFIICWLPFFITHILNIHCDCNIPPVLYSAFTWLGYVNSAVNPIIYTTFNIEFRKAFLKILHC
Description: Dopamine D2 selectivity binding assay ([3H]-spiperone). As to conditions: inhibition of [3H]-spiperone (0.16 nM) binding; read-out: D2 bind pIC50 (converted). A digest of the protocol:
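Recombinant human D2s membranes incubated 2 h at room temperature with 0.16 nM [3H]-spiperone in HEPES/EDTA/NaCl/gelatin buffer, pH 7.4; 10 μM haloperidol defined non-specific binding. Filter-bound radioactivity counted after cold washes. pIC50 from 4-parameter logistic fit of NSB-corrected specific binding.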

Structures can show the parent of a compound that is named as a salt.

T2 sequence (P08588 whole entry): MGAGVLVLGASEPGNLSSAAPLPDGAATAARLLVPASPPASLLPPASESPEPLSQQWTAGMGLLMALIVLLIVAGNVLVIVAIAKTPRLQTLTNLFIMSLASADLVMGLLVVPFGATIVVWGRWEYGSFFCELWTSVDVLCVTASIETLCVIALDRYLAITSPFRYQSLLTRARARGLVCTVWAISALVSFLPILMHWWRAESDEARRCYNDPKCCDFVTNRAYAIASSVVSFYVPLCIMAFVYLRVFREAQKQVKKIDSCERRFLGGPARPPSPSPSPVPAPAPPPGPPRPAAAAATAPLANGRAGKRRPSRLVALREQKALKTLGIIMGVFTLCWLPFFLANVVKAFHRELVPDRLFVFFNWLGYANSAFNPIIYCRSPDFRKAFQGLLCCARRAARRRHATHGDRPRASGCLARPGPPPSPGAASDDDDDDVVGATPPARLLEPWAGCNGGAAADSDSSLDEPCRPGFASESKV

In the case of `O=C(CCNCCc1cccc(F)c1)N(CCNCCc1ccc(O)c2[nH]c(=O)sc12)C1CCCCCC1` [Example 36, N-Cycloheptyl-N^3-[2-(3-fluorophenyl)ethyl]-N-(2-{[2-(4-hydroxy-2-oxo-2,3-dihydro-1,3-benzothiazol-7-yl)ethyl]amino}ethyl)-β-alaninamide bis-trifluoroacetic acid salt], the IC50 was 0.158 µM in assay [1], 3.16 µM in assay [2] and 0.2 µM in assay [3].
Taken in the same sequence, the figures for `O=C(CCNCCc1cccc(O)c1)N(CCNCCc1ccc(O)c2[nH]c(=O)sc12)C1CCCCCC1` [Example 37, N-Cycloheptyl-N-(2-{[2-(4-hydroxy-2-oxo-2,3-dihydro-1,3-benzothiazol-7-yl)ethyl]amino}ethyl)-N^3-[2-(3-hydroxyphenyl)ethyl]-β-alaninamide bis-trifluoroacetic acid salt] were 0.2 µM, 3.98 µM and 0.398 µM.
`CC(C)(C)CN(CCNCCc1ccc(O)c2[nH]c(=O)sc12)C(=O)CCNC(C)(C)Cc1ccccc1` [Example 38, N^3-(1,1-Dimethyl-2-phenylethyl)-N-(2,2-dimethylpropyl)-N-(2-{[2-(4-hydroxy-2-oxo-2,3-dihydro-1,3-benzothiazol-7-yl)ethyl]amino}ethyl)-β-alaninamide bis-trifluoroacetic acid salt]: the IC50 is 0.794 µM in assay [1], 5.01 µM in assay [2] and 0.794 µM in assay [3].
For `O=C(CCNCCc1ccccc1)N(CCNCCc1ccc(O)c2[nH]c(=O)sc12)C1Cc2ccccc2C1` [Example 41, N^1-(2,3-Dihydro-1H-inden-2-yl)-N^1-(2-{[2-(4-hydroxy-2-oxo-2,3-dihydro-1,3-benzothiazol-7-yl)ethyl]amino}ethyl)-N^3-(2-phenylethyl)-β-alaninamide bis-trifluoroacetic acid salt], the IC50 in assay [1] is 0.0126 µM; in assay [2], 1.58 µM; in assay [3] it was 0.2 µM.
Take `O=C(CCNCCc1cccc(Cl)c1)N(CCNCCc1ccc(O)c2[nH]c(=O)sc12)C1Cc2ccccc2C1` [Example 42, N^3-[2-(3-Chlorophenyl)ethyl]-N^1-(2,3-dihydro-1H-inden-2-yl)-N^1-(2-{[2-(4-hydroxy-2-oxo-2,3-dihydro-1,3-benzothiazol-7-yl)ethyl]amino}ethyl)-β-alaninamide bis-trifluoroacetic acid salt]: the results for the IC50 in assay [1], in assay [2] and in assay [3] were 0.0631 µM, 1.26 µM and 0.1 µM, respectively.
In the case of `COc1cccc(CCNCCC(=O)N(CCNCCc2ccc(O)c3[nH]c(=O)sc23)CC(C)(C)C)c1` [Example 43, N^1-(2,2-Dimethylpropyl)-N^1-(2-{[2-(4-hydroxy-2-oxo-2,3-dihydro-1,3-benzothiazol-7-yl)ethyl]amino}ethyl)-N^3-[2-(3-methoxyphenyl)ethyl]-β-alaninamide bis-trifluoroacetic acid salt], the IC50 is 0.158 µM in assay [1], 5.01 µM in assay [2] and 0.2 µM in assay [3].
`CC(C)(C)CN(CCNCCc1ccc(O)c2[nH]c(=O)sc12)C(=O)CCNCCc1cccc(F)c1` [Example 44, N^1-(2,2-Dimethylpropyl)-N^3-[2-(3-fluorophenyl)ethyl]-N^1-(2-{[2-(4-hydroxy-2-oxo-2,3-dihydro-1,3-benzothiazol-7-yl)ethyl]amino}ethyl)-β-alaninamide bis-trifluoroacetic acid salt]: the IC50 was 0.316 µM in assay [1], 5.01 µM in assay [2] and 0.126 µM in assay [3].
Consider `CC(C)(CN(CCNCCc1ccc(O)c2[nH]c(=O)sc12)C(=O)CCNCCc1ccccc1)c1ccccc1` [Example 45, N^1-(2-{[2-(4-Hydroxy-2-oxo-2,3-dihydro-1,3-benzothiazol-7-yl)ethyl]amino}ethyl)-N^1-(2-methyl-2-phenylpropyl)-N^3-(2-phenylethyl)-β-alaninamide bis-trifluoroacetic acid salt], for which the IC50 in assay [1] is 0.2 µM; in assay [2], 1.26 µM; in assay [3], 0.251 µM.
Taken in the same sequence, the figures for `O=C(CCNCCc1ccccc1Cl)N(CCNCCc1ccc(O)c2[nH]c(=O)sc12)C1CCC(F)(F)CC1` [Example 46, N^3-[2-(2-Chlorophenyl)ethyl]-N^1-(4,4-difluorocyclohexyl)-N^1-(2-{[2-(4-hydroxy-2-oxo-2,3-dihydro-1,3-benzothiazol-7-yl)ethyl]amino}ethyl)-β-alaninamide bis-trifluoroacetic acid salt] were 0.158 µM, 1.58 µM and 0.0398 µM.
On to `O=C(CCNCCc1cccc(Cl)c1)N(CCNCCc1ccc(O)c2[nH]c(=O)sc12)C1CCC(F)(F)CC1` [Example 47, N^3-[2-(3-Chlorophenyl)ethyl]-N^1-(4,4-difluorocyclohexyl)-N^1-(2-{[2-(4-hydroxy-2-oxo-2,3-dihydro-1,3-benzothiazol-7-yl)ethyl]amino}ethyl)-β-alaninamide bis-trifluoroacetic acid salt], for which the IC50 in assay [1] was 0.501 µM; in assay [2], 1.26 µM; in assay [3], 0.158 µM.
On to `O=C(CCNCCc1ccc(Cl)cc1)N(CCNCCc1ccc(O)c2[nH]c(=O)sc12)C1CCC(F)(F)CC1` [Example 48, N^3-[2-(4-Chlorophenyl)ethyl]-N^1-(4,4-difluorocyclohexyl)-N^1-(2-{[2-(4-hydroxy-2-oxo-2,3-dihydro-1,3-benzothiazol-7-yl)ethyl]amino}ethyl)-β-alaninamide bis-trifluoroacetic acid salt], for which the IC50 in assay [1] was 0.631 µM; in assay [2], 2.51 µM; in assay [3] it was 0.1 µM.
Taken in the same sequence, the figures for `O=C(CCNCCc1cccc(Cl)c1)N(CCNCCc1ccc(O)c2[nH]c(=O)sc12)C1CCCCCC1` [Example 50, N^3-[2-(3-Chlorophenyl)ethyl]-N^1-cycloheptyl-N^1-(2-{[2-(4-hydroxy-2-oxo-2,3-dihydro-1,3-benzothiazol-7-yl)ethyl]amino}ethyl)-β-alaninamide bis-trifluoroacetic acid salt] were 0.0794 µM, 0.794 µM and 0.0316 µM.
On the same counts, the results for `O=C(CCNCCc1ccc(Cl)cc1)N(CCNCCc1ccc(O)c2[nH]c(=O)sc12)C1CCCCCC1` [Example 51, N^3-[2-(4-Chlorophenyl)ethyl]-N^1-cycloheptyl-N^1-(2-{[2-(4-hydroxy-2-oxo-2,3-dihydro-1,3-benzothiazol-7-yl)ethyl]amino}ethyl)-β-alaninamide bis-trifluoroacetic acid salt] are 0.316 µM, 2.51 µM and 0.0251 µM.
Consider `O=C(CCNCCc1cccs1)N(CCNCCc1ccc(O)c2[nH]c(=O)sc12)C1CCCCCC1` [Example 52, N^1-Cycloheptyl-N^1-(2-{[2-(4-hydroxy-2-oxo-2,3-dihydro-1,3-benzothiazol-7-yl)ethyl]amino}ethyl)-N^3-[2-(2-thienyl)ethyl]-β-alaninamide bis-trifluoroacetic acid salt], for which the IC50 in assay [1] is 0.1 µM; in assay [2], 1.58 µM; in assay [3] it was 0.0398 µM.
With `O=C(CCNCCc1ccc(F)c(F)c1)N(CCNCCc1ccc(O)c2[nH]c(=O)sc12)C1CCCCCC1` [Example 53, N^1-Cycloheptyl-N^1-[2-(3,4-difluorophenyl)ethyl]-N^1-(2-{[2-(4-hydroxy-2-oxo-2,3-dihydro-1,3-benzothiazol-7-yl)ethyl]amino}ethyl)-β-alaninamide bis-trifluoroacetic acid salt], the IC50 is 0.126 µM in assay [1], 3.98 µM in assay [2] and 0.0794 µM in assay [3].
On the same counts, the results for `O=C(CCNCCc1cccc(OC(F)F)c1)N(CCNCCc1ccc(O)c2[nH]c(=O)sc12)C1CCCCCC1` [Example 54, N-Cycloheptyl-N^3-{2-[3-(difluoromethoxy)phenyl]ethyl}-N^1-(2-{[2-(4-hydroxy-2-oxo-2,3-dihydro-1,3-benzothiazol-7-yl)ethyl]amino}ethyl)-β-alaninamide bis-trifluoroacetic acid salt] are 0.316 µM, 2.51 µM and 0.0501 µM.
